Measured values: ChEMBL document CHEMBL4616612, “Synthesis and inhibitory effect of cis-guggulsterone on lipopolysaccharide-induced production of nitric oxide in macrophages” (Bioorg Med Chem Lett, 2020)
Calls of active or inactive are those of the source. No cut-off for these calls is given here.

What was measured:
[1] = test system: RAW264.7; experiment: Anti-inflammatory activity in mouse RAW264.7 cells assessed as reduction in LPS-induced IL6 level preincubated for 2 hrs followed by LPS addition and measured after 18 hrs by ELISA; type: functional, cell-based
[2] = test system: RAW264.7; experiment: Anti-inflammatory activity in mouse RAW264.7 cells assessed as inhibition of LPS-induced NO production preincubated for 1 hr followed by LPS addition and measured after 24 hrs; type: functional, cell-based
[3] = test system: RAW264.7; experiment: Anti-inflammatory activity in mouse RAW264.7 cells assessed as reduction in LPS-induced COX2 protein level at 6.25 to 12.5 microM by Western blot analysis; type: functional, cell-based
[4] = test system: RAW264.7; experiment: Anti-inflammatory activity in mouse RAW264.7 cells assessed as reduction in LPS-induced TNFalpha level preincubated for 2 hrs followed by LPS addition and measured after 18 hrs by ELISA; type: functional, cell-based
[5] = test system: RAW264.7; experiment: Anti-inflammatory activity in mouse RAW264.7 cells assessed as reduction in LPS-induced iNOS protein level at 6.25 to 12.5 microM by Western blot analysis; type: functional, cell-based
[6] = Cytotoxicity against mouse RAW264 cells assessed as reduction in cell viability at 25 uM incubated for 24 hrs by MTT assay; type: cell-based
[7] = Cytotoxicity against mouse RAW264 cells assessed as reduction in cell viability up to 25 uM incubated for 24 hrs by MTT assay; type: cell-based

SMILES: C/C=C1/C(=O)C[C@H]2[C@@H]3CCC4=CC(=O)CC[C@]4(C)[C@H]3CC[C@]12C [E-GUGGULSTERONE]
- Activity [1]: Dose-dependent effect
- Activity [2]: Dose-dependent effect
- Activity [3]: Active
- Activity [4]: Dose-dependent effect
- Activity [5]: Active
- Activity [6]: Toxic

SMILES: C/C=C1\C(=O)C[C@H]2[C@@H]3CCC4=CC(=O)CC[C@]4(C)[C@H]3CC[C@]12C [GUGGULSTERONE]
- Activity [2]: Dose-dependent effect
- Activity [7]: Non-Toxic

SMILES: COC(=O)[C@@H](N)CCCNC(=N)N[N+](=O)[O-]
- inhibition [2]: Active
